Test results taken from PubChem BioAssay AID1626 (SRMLSC, 2009).

Tested on: M. tuberculosis H37Rv growth inhibition
Assay: M. tuberculosis H37Rv growth inhibitors, H37Rv strain (AID 1626)
Settings: for IC90: measured here: IC90 against H37Rv; for CC50: measured here: Vero cell cytotoxicity

Compound | IC50 | IC90 | CC50
CC(=O)Nc1nc2ccccc2n1Cc1ccccc1Cl | < 0.195 µM | > 100 µM | 16.3 µM
CCOC(=O)c1cnc(-n2nc(C)cc2C)nc1NCc1ccc2c(c1)OCO2 | 4.62 µM | > 100 µM | > 40 µM
CC(C)=CCOc1ccc([C@@H]2COc3c(ccc4c3C=CC(C)(C)O4)C2)c(O)c1 | 19.4 µM | 60.9 µM | > 40 µM
CCOC(=O)C(Nc1ccc2ccccc2c1)C(=O)OCC | 1.04 µM | 2.86 µM | > 40 µM
S=c1[nH]cnc2sc(-c3ccccc3)cc12 | 8.3 µM | > 100 µM | –
COc1ccc(/C=C2\Sc3ccc(C(=O)NCc4cccnc4)cc3N(C)C2=O)cc1OC | 13 µM | 31.1 µM | –
CC(=O)Nc1cccc(OCc2ccc(F)cc2)c1 | – | > 100 µM | > 40 µM
OCC#CCSc1nnc(-c2ccc(Br)cc2)o1 | 0.543 µM | 17.9 µM | –
O=C(NCc1cccnc1)/C(=C/c1ccc(-c2ccc(Cl)cc2)o1)S(=O)(=O)c1ccccc1 | 3.9 µM | 29.7 µM | 24 µM
COc1ccc(Nc2nc(C)c3ccccc3n2)cc1 | – | – | > 40 µM
CCCOC(=O)c1ccc(NC(=O)/C=C/c2cccs2)cc1 | 4.12 µM | 21.8 µM | –
COc1ccc2nc(/N=C(\N)NC(=O)N3c4ccccc4Sc4ccccc43)nc(C)c2c1 | 28.5 µM | > 100 µM | > 40 µM
CCOC(=O)N1CCN(C(=O)CSc2nc(-c3cccc(C)c3)ns2)CC1 | 0.734 µM | 0.828 µM | > 40 µM
CCOc1ccc(NC(=O)N(C2CCCCCC2)C2CCN(C(C)=O)CC2)cc1 | – | > 100 µM | –
COc1ccc(C)cc1N=Nc1ccc(O)c2ncccc12 | 31.8 µM | > 100 µM | 2.01 µM
O=C(CSc1ncnc2sc3c(c12)CCCC3)N1CCC(c2noc3ccc(F)cc23)CC1 | 2.94 µM | 4.24 µM | > 40 µM
CSc1ccc(/C=C/C(=O)c2ccc(NC(C)=O)cc2)cc1 | 28.4 µM | > 100 µM | –
CC1CC(C)(C)Nc2ccc(OC(=O)c3ccco3)cc21 (centres undefined) | 15.9 µM | 22.2 µM | > 40 µM
O=C(Nc1nnc(-c2ccco2)o1)c1ccc([N+](=O)[O-])s1 | 6.03 µM | 8.57 µM | 16.6 µM
CC(C)(C)C(=O)/C=C/Nc1ccccc1O | 2.55 µM | 3.93 µM | > 40 µM
C=C1C2(C(=O)Nc3ccc(SC(F)F)cc3)CCC(C2)C1(C)C (centres undefined) | – | > 100 µM | –

Compound | IC50 | IC90 | CC50
Fc1ccc(Oc2nc(-c3ccccn3)nc3ccccc23)cc1 | 1.96 µM | 11.2 µM | > 40 µM
COc1cc(CNCc2ccccn2)ccc1OCc1ccc(Cl)cc1Cl | 6.04 µM | 9.96 µM | > 40 µM
O=C(Nc1ccc(F)cc1F)Nc1csc2ccccc12 | < 0.391 µM | 52.7 µM | > 40 µM
N#C/C(=C(/O)CSc1nnc(Cc2cccs2)n1C1CCCCC1)c1nc2ccccc2[nH]1 | – | > 100 µM | –
COc1ccc(-c2oc3ncn(Cc4ccco4)c(=N)c3c2-c2ccc(OC)cc2)cc1 | 8.35 µM | 13.9 µM | 23.7 µM
COC(=O)C(Oc1ccc2c(-c3ccc(OC)cc3)cc(=O)oc2c1)c1ccccc1 (centres undefined) | 15.4 µM | 20.9 µM | –
COc1cnc(-c2ccccn2)nc1Sc1ccccc1Cl | 1.94 µM | 6.23 µM | 7.16 µM
COCCn1nnnc1C(c1cc2cc(OC)ccc2[nH]c1=O)N1CCC(Cc2ccccc2)CC1 (centres undefined) | 7.52 µM | 15.8 µM | –
COc1ccc(NCN2C(=O)CCC2=O)cc1 | – | > 100 µM | –
COC(=O)c1ccc(Cn2cc(C(F)(F)F)cc([N+](=O)[O-])c2=O)cc1 | 29.9 µM | > 100 µM | –
O=C(Nc1ccc(Nc2ccncc2)cc1)c1ccc(Nc2ccnc3ccc([N+](=O)[O-])cc23)cc1[N+](=O)[O-] | 1.39 µM | 1.57 µM | > 40 µM
COC(=O)c1ccc(C(=O)OC)c(NC(=O)CN2CCN(c3ccccc3)CC2)c1 | 66.1 µM | > 100 µM | > 40 µM
CC(=O)Oc1c(-c2ccco2)oc2ccccc2c1=O | 51.4 µM | > 100 µM | –
CC(C)[C@H](CO)N(Cc1cccc(F)c1)c1nc(Nc2cccc(Cl)c2)c2ncn(C(C)C)c2n1 | 7.31 µM | 14.1 µM | > 40 µM
CC(=O)Nc1nc(NC(=O)/C=C/c2ccccc2)n(-c2ccccc2)n1 | 3.63 µM | 8.76 µM | 27.7 µM
CC1CCC(C(C)C)C(OC(=O)Cn2c(-c3ccc(F)cc3)[n+](C)c3ccccc32)C1 (centres undefined) | 6.98 µM | 11.4 µM | –
CCOC(=O)c1sc2nc(C)[nH]c(=S)c2c1C | 39.1 µM | > 100 µM | –
O=C(/C=C/c1ccc(Cl)c([N+](=O)[O-])c1)c1cccnc1 | 1.18 µM | 2.47 µM | 38.8 µM
CCOC(=O)C1=C(c2ccccc2)N=c2s/c(=C\c3ccc(O)cc3)c(=O)n2C1c1cccs1 (centres undefined) | 8.75 µM | > 100 µM | > 40 µM
CC(C)Cc1c(O)nc(SCC(=O)Nc2ccc3c(c2)CCC3)[nH]c1=O | – | > 100 µM | –
COc1ccc(N2CCN(C(=O)CN3CCN(c4nc(-c5ccc(F)cc5)cs4)CC3)CC2)cc1 | – | – | > 40 µM

Compound | IC50 | IC90 | CC50
COc1cccc(CNCCc2c[nH]c3ccccc23)c1OCc1ccccc1F | 7.08 µM | 11.3 µM | 14.4 µM
O=C(C[n+]1cnn(CC(=O)c2ccc(Cl)cc2Cl)c1)c1ccc([N+](=O)[O-])cc1 | 20.3 µM | 36.8 µM | –
COc1ccccc1N1CCN(c2nc(C)nc3c2oc2ccccc23)CC1 | 1.74 µM | 3.89 µM | 5.01 µM
CCOC(=O)Nc1ccc(C(=O)Oc2ccccc2)c(O)c1 | < 0.195 µM | > 100 µM | > 40 µM
CS(=O)(=O)Cc1nc2ccccc2oc1=O | 1.45 µM | 2.01 µM | > 40 µM
Cc1cc(Oc2ccc(Cl)cc2)nc(-c2ccccn2)n1 | 14.5 µM | > 100 µM | 21.1 µM
COc1ccc(NC(=O)c2ccc(COCC(F)(F)C(F)F)cc2)cc1 | – | > 100 µM | –
Cc1nc(N2CCOCC2)c2c(C)c(C(=O)Nc3ccc(C(F)(F)F)cc3)sc2n1 | – | – | > 40 µM
Cc1ccc(C(=O)CC(=O)COc2ccc(Cl)cc2)cc1 | 6.66 µM | > 100 µM | > 40 µM
CCSc1nnc(NC(=O)c2ccc3ccccc3n2)s1 | 0.628 µM | 2.19 µM | 38.1 µM
COC(=O)CSc1ccc(C#N)c(SCC(=O)OC)c1 | 3.27 µM | 10.4 µM | –
COCc1ccc(O)c2ncccc12 | 10.9 µM | 12 µM | 9.76 µM
O=c1[nH][nH]c(-c2ccccc2O)c1C(C[N+](=O)[O-])c1cccc(Cl)c1 (centres undefined) | 7.89 µM | 13.9 µM | 26.7 µM
CCOc1ccc(-c2csc(/C(C#N)=C\c3ccc(O)c([N+](=O)[O-])c3)n2)cc1 | 8.54 µM | 14.9 µM | 10.9 µM
COc1ccccc1NC(=O)CN1CCN(C2c3ccccc3-c3ccccc32)CC1 | – | > 100 µM | > 40 µM
CSc1nc2ccc(NC(=O)C3CC(=O)N(Cc4ccccc4)C3)cc2s1 (centres undefined) | 5.17 µM | 7.75 µM | –
Cc1ccc(CN=c2c([N+](=O)[O-])nn(-c3cccc(Cl)c3)n2O)cc1 | 2.8 µM | 2.94 µM | –
CCc1cccc2c1NC(=O)C21N2CCCC2C(C(=O)c2ccc3ccccc3c2)C12C(=O)Nc1ccccc12 (centres undefined) | 23.8 µM | > 100 µM | > 40 µM
Cc1ccc(C(=O)/C=C/c2ccccc2[N+](=O)[O-])cc1 | 4.21 µM | 7.62 µM | 26.5 µM
CC(=O)OCCCN1c2ccccc2Nc2nnc(-c3ccccc3)cc21 | – | > 100 µM | > 40 µM
Cc1ccc(OCc2nnc(SCc3cc(=O)[nH]c4ccccc34)n2-c2ccccc2)cc1 | 27.8 µM | > 100 µM | > 40 µM

Compound | IC50 | IC90 | CC50
CCOC(=O)c1c(C)oc2ccc(OC(=O)c3cccs3)cc12 | 2.08 µM | 13.6 µM | –
COc1ccc(N=Cc2c(O)ccc3ccccc23)cc1 | – | > 100 µM | –
O=C(Oc1ccc(Cl)c2cccnc12)C12CC3CC(CC(C3)C1)C2 | 4.52 µM | 5.77 µM | > 40 µM
O=C(Nc1ncc(Cc2ccccc2Cl)s1)C1=NCCN1 | 3.75 µM | 10.3 µM | > 40 µM
CC(C)OC(=O)c1cc(C(=O)c2cc(Cl)ccc2O)coc1=N | 28.2 µM | > 100 µM | –
COc1ccc(-n2c(C)nc3sc4c(c3c2=O)CCCC4)cc1 | 11.7 µM | 13.3 µM | –
CCc1nc(N2CCCC(C)C2)c2oc3ccccc3c2n1 (centres undefined) | 17 µM | 23.8 µM | > 40 µM
COC(=O)CSc1nc2c(c(-c3ccc(C)o3)c1C#N)CCCC2 | 2.66 µM | 3.47 µM | –
CCOC(=O)Cn1nnc(-c2ccc(OCC(C)C)cc2)n1 | 16.6 µM | > 100 µM | –
O=C(NC12CC3CC(CC(C3)C1)C2)c1ccc(-c2ccc(Br)cc2)o1 | 6.56 µM | 12.7 µM | 35.3 µM
Cc1ccc(S(=O)(=O)Nc2ccc(NC(=O)c3c(F)c(F)c(F)c(F)c3F)cc2)cc1 | – | – | 21.8 µM
CCOc1ccc(Nc2nc(N)nc(CCl)n2)cc1 | 23.2 µM | > 100 µM | 0.194 µM
COc1cc(CN2CCCC(C(=O)c3ccccc3SC)C2)cc(OC)c1 (centres undefined) | 22.7 µM | 25.9 µM | > 40 µM
O=C(Nc1ccc2c(c1)OCCO2)c1cccc2nc3ccccc3nc12 | < 0.195 µM | 2.17 µM | > 40 µM
Cc1ccc(Cn2c(NC(=O)c3ccco3)nc3ccccc32)cc1 | 4.08 µM | > 100 µM | > 40 µM
COc1cc(NC(=O)c2c(F)c(F)c(F)c(F)c2F)c(OC)cc1Cl | 0.738 µM | > 100 µM | > 40 µM
CC(=O)c1ccc(NC(=O)c2cc(CC(C)C)on2)cc1 | 7.21 µM | 42.9 µM | –
COC(=O)CCCC(=O)Nc1ccc(Cl)c(Cl)c1 | 23.1 µM | > 100 µM | –
COC(=O)c1cc(/C=C/c2ccccc2)on1 | 1.33 µM | > 100 µM | –
CCOC(=O)c1cn[nH]c1N | – | > 100 µM | –
